Results: patent US20240299285A1, “PERSONAL CARE COMPOSITION” (The Procter & Gamble Company, priority 2023, published 2024)

Experiment: Solubility Method (cooling/heating cycles, % transmittance, visual precipitate check)
Format: physicochemical
Settings: SLT:SMLT 10.5:1, co-surfactant 1 % or 4 %, pH 5.2
From the text: This method can be used to determine the solubility characteristics of a material (e.g., an acyl taurate) in a composition. The method uses heating and cooling cycles to simulate environmental conditions commonly experienced by a personal care product and accelerate the processes that can lead to product instability.
The test composition (e.g., an aqueous surfactant composition consisting of an acyl taurate surfactant and an N-alkyl acyl taurate surfactant and/or a co-surfactant, and/or a cationic polymer and water) is placed in a closed container to prevent evaporation and heated at 40° C. for a minimum of 30 minutes or until the composition is visually clear & free of precipitates. One mL of the test solution is added to a Crystal-16 vial, closed with a basic cap and placed into a Technobis Crystallization Systems Crystal16® Model 2.2 or equivalent. The % transmittance readings are set to record 1 measurement every 300 seconds. The vials are cooled to 5° C. at a rate of 0.25° C./min and held at 5° C. for 8 hours (cooling cycle). The vials are then heated to 20° C. at a rate of 0.25° C./min and held at 20° C. for 8 hours (heating cycle). […] When the final % T recorded at the end of the heating cycle is greater than or equal to 90% and no precipitate is observed the sample is considered soluble.

Substance	effect of co-surfactant on acyl taurate (SLT) solubility
cocamidopropyl hydroxysultaine [CAPHS]	did not provide the desired solubility
sodium lauroamphoacetate	did not provide the desired solubility
